{"source": "patent US20220331235A1", "about": "“COMPOSITIONS FOR ORAL MICROADHESIVE DOSAGE FORMS” (FP NUTRACEUTICALS, LLC, priority 2018, published 2022)", "origin": "cited, not measured here", "key": {"[1]": {"conditions": "vitamin B6: from food or supplements"}, "[2]": {"conditions": "rat brain"}}}
{"compound": "NCC(=O)[O-].NCC(=O)[O-].[Zn+2]", "note": "[zinc glycinate]", "values": [{"measurement": "bioavailability among four forms of zinc (oxide, picolinate, gluconate, glycinate)", "setting": "acute uptake", "value": "highest bioavailability"}, {"measurement": "plasma zinc rankings based on area under the curve and rank results per person", "value": "glycinate>gluconate>picolinate=oxide"}, {"measurement": "increase in bioavailability over zinc gluconate", "setting": "versus second most-bioavailable form", "value": 43.4, "unit": "%"}]}
{"compound": "zinc gluconate", "values": [{"measurement": "plasma zinc rankings based on area under the curve and rank results per person", "value": "glycinate>gluconate>picolinate=oxide"}]}
{"compound": "Cc1ncc(CO)c(CO)c1O", "note": "[vitamin B6, pyridoxine]", "values": [{"measurement": "bioavailability", "setting": "[1]", "value": "75-100%"}]}
{"compound": "O=C([O-])c1cc(=O)[nH]c(=O)[nH]1.[Li+]", "note": "[lithium orotate]", "values": [{"measurement": "level in the brain compared to the carbonate form", "setting": "[2]", "value": "three-fold higher"}]}
{"compound": "[O-2].[Zn+2]", "note": "[Zn-oxide]", "values": [{"measurement": "plasma zinc rankings based on area under the curve and rank results per person", "value": "glycinate>gluconate>picolinate=oxide"}]}
{"compound": "cobalamin [vitamin B12]", "values": [{"measurement": "bioavailability", "setting": "[1]", "value": "1-2%"}]}
{"compound": "O=C([O-])c1ccccn1.O=C([O-])c1ccccn1.[Zn+2]", "note": "[Zn-picolinate]", "values": [{"measurement": "plasma zinc rankings based on area under the curve and rank results per person", "value": "glycinate>gluconate>picolinate=oxide"}]}
